# From patent US10227350B2 (Gilead Sciences, Inc., priority 2016, dated 2019)
# Biological target: PI3Kβ (Homo sapiens (Human), UniProt P42338)
# Assay: TR-FRET enzymatic activity assay, PI3Kβ
# Type: biochemical
# Conditions: 2× Km ATP, 2 μM PIP2, 30 minutes at 25° C., read-out: IC50-PIP-Beta
# Summary of the method: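 Purified recombinant heterodimeric PI3Kβ; PIP3 formation read by TR-FRET as competition with fluorescent tracer for GRP-1 PH domain binding. Compounds incubated 30 min at 25 °C.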
# PI3Kβ, sequence (P42338 whole entry): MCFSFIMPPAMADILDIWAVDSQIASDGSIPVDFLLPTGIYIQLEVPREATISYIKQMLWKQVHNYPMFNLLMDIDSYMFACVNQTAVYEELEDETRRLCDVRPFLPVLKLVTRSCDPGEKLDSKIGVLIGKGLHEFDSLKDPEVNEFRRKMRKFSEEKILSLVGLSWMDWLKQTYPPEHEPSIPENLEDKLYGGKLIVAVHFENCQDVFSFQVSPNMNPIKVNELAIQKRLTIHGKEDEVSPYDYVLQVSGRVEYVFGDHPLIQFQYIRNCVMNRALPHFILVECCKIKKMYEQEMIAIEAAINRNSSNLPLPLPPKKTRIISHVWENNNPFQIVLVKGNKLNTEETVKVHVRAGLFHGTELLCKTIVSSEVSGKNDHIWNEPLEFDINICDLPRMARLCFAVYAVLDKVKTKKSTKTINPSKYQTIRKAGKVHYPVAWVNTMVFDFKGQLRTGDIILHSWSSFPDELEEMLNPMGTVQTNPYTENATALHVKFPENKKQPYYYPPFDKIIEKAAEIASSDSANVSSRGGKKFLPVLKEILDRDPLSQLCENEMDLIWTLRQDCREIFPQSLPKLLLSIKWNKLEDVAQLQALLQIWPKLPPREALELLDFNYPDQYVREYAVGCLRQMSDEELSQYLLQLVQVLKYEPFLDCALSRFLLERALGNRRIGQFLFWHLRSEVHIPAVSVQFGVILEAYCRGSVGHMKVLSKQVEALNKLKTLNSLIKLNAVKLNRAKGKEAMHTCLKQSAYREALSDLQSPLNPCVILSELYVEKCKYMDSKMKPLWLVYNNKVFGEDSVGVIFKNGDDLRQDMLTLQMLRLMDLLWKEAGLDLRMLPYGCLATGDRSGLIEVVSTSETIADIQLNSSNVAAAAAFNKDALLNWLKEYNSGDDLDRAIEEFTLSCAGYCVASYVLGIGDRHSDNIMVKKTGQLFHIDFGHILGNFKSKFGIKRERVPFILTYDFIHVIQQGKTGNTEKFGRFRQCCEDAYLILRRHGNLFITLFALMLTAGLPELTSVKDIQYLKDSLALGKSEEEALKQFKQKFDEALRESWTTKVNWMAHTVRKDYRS
# PI3Kβ, sequence (P27986 whole entry partner): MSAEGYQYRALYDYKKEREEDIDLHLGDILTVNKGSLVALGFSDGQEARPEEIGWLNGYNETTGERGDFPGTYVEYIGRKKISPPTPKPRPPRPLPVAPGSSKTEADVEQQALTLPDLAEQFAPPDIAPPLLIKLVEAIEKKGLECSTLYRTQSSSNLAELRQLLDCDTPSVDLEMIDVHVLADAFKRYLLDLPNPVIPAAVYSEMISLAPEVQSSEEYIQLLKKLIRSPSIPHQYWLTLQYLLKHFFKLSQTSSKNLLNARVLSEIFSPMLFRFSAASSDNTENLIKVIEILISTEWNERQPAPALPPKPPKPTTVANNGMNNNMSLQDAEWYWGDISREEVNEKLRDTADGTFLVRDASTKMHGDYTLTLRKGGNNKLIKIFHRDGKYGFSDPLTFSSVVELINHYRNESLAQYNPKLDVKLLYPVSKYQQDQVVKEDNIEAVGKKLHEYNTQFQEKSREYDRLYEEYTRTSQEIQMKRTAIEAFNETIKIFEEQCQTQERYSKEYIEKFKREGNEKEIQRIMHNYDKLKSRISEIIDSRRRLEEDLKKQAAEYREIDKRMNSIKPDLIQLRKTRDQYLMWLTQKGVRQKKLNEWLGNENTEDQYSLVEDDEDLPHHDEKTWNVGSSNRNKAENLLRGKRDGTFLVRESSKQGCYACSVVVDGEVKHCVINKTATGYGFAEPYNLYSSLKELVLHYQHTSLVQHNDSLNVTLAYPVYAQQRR
row,SMILES,IC50 [nM]
1,"Cc1nc2c(-c3nnc[nH]3)cc(-c3ccnc(N)c3)cc2n1-c1ccnc2c(Cl)cccc12 [Example 58, 4-(1-(8-chloroquinolin-4-yl)-2-methyl-4-(4H-1,2,4-triazol-3-yl)-1H-benzo[d]imidazol-6-yl)pyridin-2-amine]",10
2,"Cc1nnc(-c2cc(-c3ccncc3)cc3c2nc(C)n3-c2ccnc3c(F)ccc(F)c23)[nH]1 [Example 33, 5,8-difluoro-4-[2-methyl-4-(5-methyl-4H-1,2,4-triazol-3-yl)-6-pyridin-4-ylbenzimidazol-1-yl]quinoline]",110
3,"Cc1cc(-n2c(C)nc3c(C(N)=O)cc(-c4ccncc4)cc32)c2cccc(Cl)c2n1 [Example 7, 1-(8-chloro-2-methylquinolin-4-yl)-2-methyl-6-pyridin-4-ylbenzimidazole-4-carboxamide]",16
4,"Cc1nc2c(C(N)=O)cc(-c3ccnc(C#N)c3)cc2n1-c1ccnc2c(F)ccc(F)c12 [Example 16, 6-(2-cyanopyridin-4-yl)-1-(5,8-difluoroquinolin-4-yl)-2-methylbenzimidazole-4-carboxamide]",51
5,"Cc1nc2c(C(N)=O)cc(-c3ccnc(N)n3)cc2n1-c1ccnc2c(Cl)cccc12 [Example 19, 6-(2-aminopyrimidin-4-yl)-1-(8-chloroquinolin-4-yl)-2-methylbenzimidazole-4-carboxamide]",12
6,"Cc1nc2c(C(N)=O)cc(-c3ncnc4[nH]cnc34)cc2n1-c1ccnc2c(Cl)cccc12 [Example 20, 1-(8-chloroquinolin-4-yl)-2-methyl-6-(9H-purin-6-yl)benzimidazole-4-carboxamide]",1100
7,"Nc1cc(-c2cc(-c3nnc[nH]3)c3nc(C4CC4)n(-c4ccnc5c(F)cccc45)c3c2)ccn1 [Example 60, 4-[2-cyclopropyl-3-(8-fluoroquinolin-4-yl)-7-(4H-1,2,4-triazol-3-yl)benzimidazol-5-yl]pyridin-2-amine]",420
8,"Cc1nc2c(-c3nnc[nH]3)cc(-c3ccnc(Cl)c3)cc2n1-c1ccnc2c(F)ccc(F)c12 [Example 158, 4-(6-(2-chloropyridin-4-yl)-2-methyl-4-(4H-1,2,4-triazol-3-yl)-1H-benzo[d]imidazol-1-yl)-5,8-difluoroquinoline]",7
9,"CCc1nc2c(-c3nnc[nH]3)cc(-c3ccnc(N)c3F)cc2n1-c1ccnc2c(F)ccc(F)c12 [Example 95, 4-[3-(5,8-difluoroquinolin-4-yl)-2-ethyl-7-(4H-1,2,4-triazol-3-yl)benzimidazol-5-yl]-3-fluoropyridin-2-amine]",5
10,"Cc1nc2c(-c3nnc[nH]3)cc(-c3ccnc(C#N)c3)cc2n1-c1ccnc2c(Cl)cccc12 [Example 149, 4-(1-(8-chloroquinolin-4-yl)-2-methyl-4-(4H-1,2,4-triazol-3-yl)-1H-benzo[d]imidazol-6-yl)picolinonitrile]",4
11,"Cc1nc2c(-c3nnc[nH]3)cc(-c3ccncc3)cc2n1-c1ccnc2c(Cl)ccc(Cl)c12 [Example 29, 5,8-dichloro-4-[2-methyl-6-pyridin-4-yl-4-(4H-1,2,4-triazol-3-yl)benzimidazol-1-yl]quinoline]",6
12,"Cc1nnc(-c2cc(-c3ccnc(N)c3F)cc3c2nc(C)n3-c2ccnc3c(Cl)ccc(F)c23)[nH]1 (single isomer, unassigned) [Example 111, 4-[3-(8-chloro-5-fluoroquinolin-4-yl)-2-methyl-7-(5-methyl-4H-1,2,4-triazol-3-yl)benzimidazol-5-yl]-3-fluoropyridin-2-amine]",2500
13,"Cc1cc(-c2cc(-c3nnc[nH]3)c3nc(C)n(-c4ccnc5c(F)ccc(F)c45)c3c2)ccn1 (single isomer, unassigned) [Example 142, 5,8-difluoro-4-(2-methyl-6-(2-methylpyridin-4-yl)-4-(4H-1,2,4-triazol-3-yl)-1H-benzo[d]imidazol-1-yl)quinoline]",11
14,"Cc1nc2c(-c3nnc[nH]3)cc(-c3ccnc(C#N)c3)cc2n1-c1ccnc2c(F)ccc(F)c12 (single isomer, unassigned) [Example 114, 4-[3-(5,8-difluoroquinolin-4-yl)-2-methyl-7-(4H-1,2,4-triazol-3-yl)benzimidazol-5-yl]pyridine-2-carbonitrile]",560
15,"Cc1nc2c(-c3nnc[nH]3)cc(-c3ccnc(C#N)c3)cc2n1-c1ccnc2c(F)ccc(Cl)c12 [Example 144, 4-(1-(5-chloro-8-fluoroquinolin-4-yl)-2-methyl-4-(4H-1,2,4-triazol-3-yl)-1H-benzo[d]imidazol-6-yl)picolinonitrile]",18
16,"Cc1nc2c(-c3nnc[nH]3)cc(-c3c(F)cnc(N)c3F)cc2n1-c1ccnc2c(F)ccc(F)c12 [Example 100, 4-[3-(5,8-difluoroquinolin-4-yl)-2-methyl-7-(4H-1,2,4-triazol-3-yl)benzimidazol-5-yl]-3,5-difluoropyridin-2-amine]",320
17,"Cc1cccc2nccc(-n3c(C)nc4c(-c5nnc[nH]5)cc(-c5ccncc5)cc43)c12 [Example 31, 5-methyl-4-[2-methyl-6-pyridin-4-yl-4-(4H-1,2,4-triazol-3-yl)benzimidazol-1-yl]quinoline]",89
18,"Nc1cc(-c2cc(-c3nnc[nH]3)c3nc(CC4CC4)n(-c4ccnc5c(Cl)cccc45)c3c2)ccn1 [Example 73, 4-[3-(8-chloroquinolin-4-yl)-2-(cyclopropylmethyl)-7-(4H-1,2,4-triazol-3-yl)benzimidazol-5-yl]pyridin-2-amine]",8
19,"Cc1nc2c(C(=O)O)cc(-c3ccnc(N)c3F)cc2n1-c1ccnc2c(F)ccc(F)c12 [Example 4, 6-(2-amino-3-fluoropyridin-4-yl)-1-(5,8-difluoroquinolin-4-yl)-2-methyl-1H-benzo[d]imidazole-4-carboxylic acid]",20
20,"Nc1cc(-c2cc(-c3nnc[nH]3)c3nc(C4CC4)n(-c4ccnc5c(Cl)ccc(F)c45)c3c2)ccn1 [Example 62, 4-[3-(8-chloro-5-fluoroquinolin-4-yl)-2-cyclopropyl-7-(4H-1,2,4-triazol-3-yl)benzimidazol-5-yl]pyridin-2-amine]",8
21,"Cc1cc(-c2cc(-c3nnc[nH]3)c3nc(C)n(-c4ccnc5c(F)ccc(F)c45)c3c2)ncn1 [Example 155, 5,8-difluoro-4-(2-methyl-6-(6-methylpyrimidin-4-yl)-4-(4H-1,2,4-triazol-3-yl)-1H-benzo[d]imidazol-1-yl)quinoline]",62
22,"Cc1nc2c(C(N)=O)cc(-c3cc(N)ncn3)cc2n1-c1ccnc2c(Cl)cccc12 [Example 21, 6-(6-aminopyrimidin-4-yl)-1-(8-chloroquinolin-4-yl)-2-methylbenzimidazole-4-carboxamide]",1300

# Further molecules by falling IC50, results first:
row,IC50 [nM],SMILES
1,810,"Cc1nc2c(-c3nnc[nH]3)cc(-c3ccnc(N)c3F)cc2n1-c1c(Cl)cnc2c(F)cccc12 (single isomer, unassigned) [Example 108, 4-[3-(3-chloro-8-fluoroquinolin-4-yl)-2-methyl-7-(4H-1,2,4-triazol-3-yl)benzimidazol-5-yl]-3-fluoropyridin-2-amine]"
2,82,"Cc1nc2c(C(N)=O)cc(-c3ccncc3)cc2n1-c1ccnc2cccc(F)c12 [Example 8, 1-(5-fluoroquinolin-4-yl)-2-methyl-6-pyridin-4-ylbenzimidazole-4-carboxamide]"
3,35,"Cc1nc2c(-c3nnc[nH]3)cc(-c3ccnc(N)c3)cc2n1-c1ccnc2c(F)cccc12 [Example 61, 4-[3-(8-fluoroquinolin-4-yl)-2-methyl-7-(4H-1,2,4-triazol-3-yl)benzimidazol-5-yl]pyridin-2-amine]"
4,7,"Cc1nc2c(-c3nnc[nH]3)cc(-c3ccnc(N)c3F)cc2n1-c1ccnc2cc(F)cc(F)c12 [Example 160, 4-(1-(5,7-difluoroquinolin-4-yl)-2-methyl-4-(4H-1,2,4-triazol-3-yl)-1H-benzo[d]imidazol-6-yl)-3-fluoropyridin-2-amine]"
5,6,"Cc1cc(-n2c(C)nc3c(-c4nnc[nH]4)cc(-c4ccncc4)cc32)c2cccc(Cl)c2n1 [Example 32, 8-chloro-2-methyl-4-[2-methyl-6-pyridin-4-yl-4-(4H-1,2,4-triazol-3-yl)benzimidazol-1-yl]quinoline]"
6,6,"Cc1nc2c(-c3nnc[nH]3)cc(-c3ccncc3)cc2n1-c1ccnc2c(F)ccc(F)c12 [Example 28, 5,8-difluoro-4-[2-methyl-6-pyridin-4-yl-4-(4H-1,2,4-triazol-3-yl)benzimidazol-1-yl]quinoline]"
7,5,"CCCc1nc2c(-c3nnc[nH]3)cc(-c3ccnc(N)c3F)cc2n1-c1ccnc2c(F)ccc(F)c12 [Example 78, 4-[3-(5,8-difluoroquinolin-4-yl)-2-propyl-7-(4H-1,2,4-triazol-3-yl)benzimidazol-5-yl]-3-fluoropyridin-2-amine]"
8,5,"Cc1nnc(-c2cc(-c3ccnc(N)c3F)cc3c2nc(C)n3-c2ccnc3c(Cl)ccc(F)c23)[nH]1 (single isomer, unassigned) [Example 112, 4-[3-(8-chloro-5-fluoroquinolin-4-yl)-2-methyl-7-(5-methyl-4H-1,2,4-triazol-3-yl)benzimidazol-5-yl]-3-fluoropyridin-2-amine]"
9,4,"Cc1nc2c(-c3nnc[nH]3)cc(-c3ccnc(C#N)c3)cc2n1-c1ccnc2c(Cl)ccc(F)c12 (single isomer, unassigned) [Example 135, 4-(1-(8-chloro-5-fluoroquinolin-4-yl)-2-methyl-4-(4H-1,2,4-triazol-3-yl)-1H-benzo[d]imidazol-6-yl)picolinonitrile]"
10,2,"CCc1nc2c(-c3nnc[nH]3)cc(-c3ccnc(N)c3F)cc2n1-c1ccnc2c(F)ccc(F)c12 (single isomer, unassigned) [Example 110, 4-[3-(5,8-difluoroquinolin-4-yl)-2-ethyl-7-(4H-1,2,4-triazol-3-yl)benzimidazol-5-yl]-3-fluoropyridin-2-amine]"
11,2,"Cc1nc2c(-c3nnc[nH]3)cc(-c3ccnc(F)c3)cc2n1-c1ccnc2c(F)ccc(F)c12 (single isomer, unassigned) [Example 133, 5,8-difluoro-4-(6-(2-fluoropyridin-4-yl)-2-methyl-4-(4H-1,2,4-triazol-3-yl)-1H-benzo[d]imidazol-1-yl)quinoline]"
